Test results from article PMC5572576 (The Lancet. Oncology, 2017).
pIC50: −log10 of the molar value. Where “and” joins values, the source holds several entries; their conditions need not be identical. Equal entries are not always repeated.

Columns and labels:
[1] = test system: patients with R/R AML; assay: Phase 1/2 study, antileukemic response; type: in vivo, human; conditions: for Median overall survival / Median response duration: (95% CI)
[2] = Plasma pharmacokinetics after oral once-daily dosing; type: in vivo, human; conditions: oral daily dosing 20–450 mg
[3] = test system: FLT3-ITD receptors in Molm14 cells; assay: Ex vivo FLT3 plasma inhibitory activity; type: cell-based; conditions: by Day 8, majority of patients receiving ≥80 mg
[4] = test system: c-Kit; conditions: cell-based assays; cited from earlier work
[5] = target: AXL; conditions: panel of 78 kinases; cited from earlier work
[6] = target: anaplastic lymphoma kinase (ALK); conditions: panel of 78 kinases; cited from earlier work
[7] = target: leukocyte receptor tyrosine kinase (LTK); conditions: panel of 78 kinases; cited from earlier work
[8] = FLT3mut+ receiving ≥80mg/d (n=169)

## CCc1nc(C(N)=O)c(Nc2ccc(N3CCC(N4CCN(C)CC4)CC3)c(OC)c2)nc1NC1CCOCC1 [gilteritinib]
[1]; FAS (n=249)
  CRc: 75 (30% [25, 36]) n (% [95% CI])
  ORR: 100 (40% [34, 47]) n (% [95% CI])
  Median overall survival: 25 (20, 30) weeks
  Median response duration: 17 (14, 29) weeks
[1]; FLT3WT (n=58)
  CRc: 5 (9% [3, 19]) n (% [95% CI])
  Median overall survival: 17 (11, 21) weeks
  Median response duration: 12 (3, 17) weeks
[1]; FLT3mut+ all patients (n=191)
  CR: 18 (9% [6, 15]) n (% [95% CI])
  CRc: 70 (37% [30, 44]) n (% [95% CI])
  CRi: 42 (22% [16, 29]) n (% [95% CI])
  CRp: 10 (5% [3, 9]) n (% [95% CI])
  ORR: 93 (49% [41, 56]) n (% [95% CI])
  PR: 23 (12% [8, 18]) n (% [95% CI])
  Median overall survival: 30 (23, 33) weeks
  Median response duration: 20 weeks and 20 (14, 33) weeks
[1]; FLT3mut+ receiving ≥80 mg/d
  Transplant rate: 19%
[1]; [8]
  CR: 18 (11% [6, 16]) n (% [95% CI])
  CRi: 41 (24% [18, 31]) n (% [95% CI])
  CRp: 10 (6% [3, 11]) n (% [95% CI])
  ORR: 88 (52% [44, 60]) n (% [95% CI])
  PR: 19 (11% [7, 17]) n (% [95% CI])
  Median overall survival: 31 weeks and 31 (24, 59) weeks
  Median response duration: 20 weeks and 20 (14, 33) weeks
[1]; FLT3mut+ responders who underwent HSCT (n=32)
  Median OS: 47 weeks
[1]; FLT3mut+ who achieved PR or better
  Transplant rate: 34%
[1]; FLT3mut+ with CRc and no prior transplant (n=47)
  Transplant rate: 47%
[1]; entire FLT3mut+ population
  Transplant rate: 19%
[2]
  Steady state plasma levels reached: 15 treatment Day
[3]
  FLT3 phosphorylation inhibition: ≥ 90%
[4]
  pIC50: 6.99
[5]
  kinase inhibition: strong inhibitor
[6]
  kinase inhibition: strong inhibitor
[7]
  kinase inhibition: strong inhibitor
